Values quoted from earlier work, collected in patent US7989405B2, “Prevention of microbial growth in metal working fluids” (Illinois Tool Works Inc., priority 2001, dated 2011).

How the values were obtained:
Enterobacter aerogenes = conditions: Bacterial: Enterobacter aerogenes
Escherischia coli = conditions: Bacterial: Escherischia coli
Pseudomonas aeruginosa = conditions: Bacterial: Pseudomonas aeruginosa
Staphylococcus aureus = conditions: Bacterial: Staphylococcus aureus
Aspergillus niger = conditions: Fungal: Aspergillus niger
Fusarium moniliforme = conditions: Fungal: Fusarium moniliforme
Saccharomyces cerevisiae = conditions: Fungal: Saccharomyces cerevisiae

For CCC12COCN1COC2 [Bioban CS-1246, 7a-ethyldihydro-1H,3H,5H-oxazolo(3,4-c)oxazole], the MIC (Enterobacter aerogenes) is listed as 250-300 parts per million, the MIC (Escherischia coli) is listed as 450-500 parts per million and the MIC (Pseudomonas aeruginosa) is listed as 800-850 parts per million. The MIC (Staphylococcus aureus) was 200-250 parts per million, the MIC (Aspergillus niger) was 65-125 parts per million and the MIC (Fusarium moniliforme) was 125-250 parts per million. For the same compound, the MIC (Saccharomyces cerevisiae) was 16-33 parts per million, the “irritation of eyes and skin” value (as supplied) was “irritating to eyes and skin” and the mutagenicity (as supplied) was “non-mutagenic”. For the same compound, the sensitisation (as supplied) was “not a sensitising agent”, the “toxicity by inhalation and skin contact” value (as supplied) was “harmful by inhalation and in contact with the skin” and the hazard (at typical use dilutions) was “no hazard”.
